Patent US20160031927A1 (ASAVI, LLC, priority 2013, published 2016)
Read-outs that look alike come from different tables or passages of the source.

Assays:
[1] = system: subgenomic RNA-replicon HCV (genotype 1b); experiment: Antiviral activity in Huh7 cells with subgenomic HCV RNA-replicon, ELISA on viral cor-antigen (genotype 1b); assay type: cell-based
Protocol: (§1) Antiviral activity (EC50) of nucleoside inhibitors of HCV RNA-polymerase NS5B of the general formula 1, 2 and 3 (further—test compounds) was determined in the human hepatoma cell line Huh7, comprising subgenomic RNA-replicon HCV (genotype 1b, 1a and 2a). For quantitative estimation of viral replication was used a version of immune test ELISA on viral cor-antigen in 96-well plate. Cytotoxicity of the compounds was estimated in parallel regime. As a reference substance was used PSI-7977. Cells Huh7 were seeded in 96-well plate (7.5×10^3 cells to each well in 100 μl of culture medium). Solutions of the tested compounds in DMEM medium {DMEM 1×; Source: Cellgro; Catalogue: 10-013-CV} were prepared immediately before use. Eleven serial three fold dilutions with concentrations from 20 nM to […] were prepared. In 4 hours after seeding, serial dilutions of the compounds were added to the cells (100 μl to each well). Final concentration of tested compounds was varied from 10 nM to 0.1 pM, and DMSO—0.5%. If it was necessary, higher concentrations of the test compounds were investigated. Each dilution of the compound was tested on two identical wells. Then the cells were incubated for three days at 37° C./5% CO2 and fixed by addition of acetone/methanol (1:1) mixture in amount of 250 μl/well. In 1 min the cells were washed 3 times with PBS (Phosphate Buffered Saline) solution. Then the cells were blocked by addition of 10% fetal calf serum in PBS solution in amount of 150 μl/well for 1 h at room temperature. After that the cells were incubated with mouse monoclonal antibodies to cor-antigen HCV, clon C7-50 (Source: Affinity BioReagents; Catalogue: MA1-080) (100 μl/well, working dilution—1:500 in 10% fetal calf serum in PBS solution) for 2 h at 37° C. The cells were washed 6 times with PBS/0.05% Tween 20 solution, then, they were incubated for 1 h with goat anti-mouse immunoglobulin antibodies (conjugated with horseradish peroxidase, 100 μl/well, working dilution—1:2500 in 10% fetal calf serum in PBS solution). The cells were washed 6 times with PBS/0.05% Tween 20 solution, once with PBS solution, after that substrate (1 tablet of o-phenylenediamine (oPD)+12 ml citrate/phosphate buffer+5 μl 30% H2O2) in amount of 100 μl/well was added. The plates were kept for 30 min in the dark at room temperature. The reaction was arrested by the adding 2N H2SO4 in amount of 100 μl/well, and optical density (at wavelength 490 nm) was measured by means of multiscan plate reader Victor3 V 1420 (Perkin Elmer). IC50 values (concentration of test compound, lowering the level of virus RNA-replicon by 50%) for every tested compound were calculated using XLfit 4 program.

[2] = system: subgenomic RNA-replicon HCV (genotype 1a); experiment: Antiviral activity in Huh7 cells with subgenomic HCV RNA-replicon, ELISA on viral cor-antigen (genotype 1a); assay type: cell-based
Protocol: as §1

[3] = system: subgenomic RNA-replicon HCV (genotype 2a); experiment: Antiviral activity in Huh7 cells with subgenomic HCV RNA-replicon, ELISA on viral cor-antigen (genotype 2a); assay type: cell-based
Protocol: as §1

[4] = Cytotoxicity determination, ATPLite kit; assay type: cell-based, human; details: human; Huh7 cells, genotype 1b, 10% FBS
Protocol: (§2) Cytotoxicity of the test compounds (CC50) was investigated in experiments on the human hepatoma cell line Huh7. Metabolic activity of cells was determined using ATPLite kit (Perkin Elmer, Boston, USA) in accordance with manufacturer instructions. Cytotoxic action was estimated by seeding the cells into black microplate with transparent bottom (96 wells, 10^4 cells to each well). Three independent repeats were used for each test compound. The tested compounds were added in 18 h, after that the cells were incubated together with the compounds for 96 h. Each well was washed two times with phosphate buffered saline (0.2 ml/well) and then the cells were lysed by adding cell buffer (50 μl/well) (all mentioned reagents are included in ATPLite kit). The microplate was incubated for 5 min on a rotating platform at 600 r/min, after that 50 μl of substrate solution (a part of ATPLite kit) was added into each well. The microplate was incubated for additional 5 min on a rotating platform at 600 r/min, kept for 10 min in the dark; after that luminescence was measured using TopCount NXT instrument (Packard, Perkin Elmer). CC50 Value corresponding to concentration of tested compound at which 50% of cells were ruined was used as quantitative characteristic for cytotoxicity estimation. Calculation of CC50 value: for calculation of inhibition effectiveness (% Inh) the following equation was used: % Inh=[(L^pos−L^ex)/L^pos−L^neg)]*100%, where L^pos—positive control, luminescence in the wells with cells without compounds; L^neg—negative control, luminescence in the wells with medium without cells; L^ex—luminescence in wells with a compound of definite concentration. Then, CC50 values were calculated using XLfit 4 program.

[5] = system: human hepatoma cell line Huh7; experiment: Cytotoxicity determination, ATPLite kit; assay type: cell-based; details: Huh7 cells, genotype 1b, 10% FBS
Protocol: as §2

[6] = system: viral hepatitis C; details: together with Daclatasvir; previously untreated patients; without interferon and Ribavirin; intermediate data; cited from earlier work
[7] = Hepatitis C virus, Huh-7, read-out: EC50, HCV genotype 1b
[8] = Hepatitis C virus, Huh-7, Huh7 replicon, genotype 1a, 10% FBS, read-out: EC50, HCV genotype 1a
[9] = Hepatitis C virus, Huh-7, Huh7 replicon, genotype 2a, 10% FBS, read-out: EC50, HCV genotype 2a
[10] = Huh7 replicon, genotype 1b, 10% FBS, read-out: EC50, HCV genotype 1b
[11] = Huh7 replicon, genotype 1a, 10% FBS, read-out: EC50, HCV genotype 1a
[12] = Huh7 replicon, genotype 2a, 10% FBS, read-out: EC50, HCV genotype 2a

Row | SMILES | EC50 [1, 7] [nM] | EC50 [2, 8] [nM] | EC50 [3, 9] [nM] | CC50 at 96 h [4] [nM] | EC50 [1, 10] [nM] | EC50 [2, 11] [nM] | EC50 [3, 12] [nM] | CC50 [5] [nM] | positive result in patients [6] [%] | EC50 ([2]; Hepatitis C virus, Huh-7, read-out: EC50, HCV genotype 1a) [nM] | EC50 ([3]; Hepatitis C virus, Huh-7, read-out: EC50, HCV genotype 2a) [nM]
1 | CC(C)OC(=O)[C@H](C)NP(=O)(OC[C@H]1OC(n2ccc(NC(=O)[C@@H]3CCCN3C)nc2=O)C(F)(F)[C@@H]1O)Oc1ccc(Cl)cc1 (some centres unmarked) [1.1.2(6)] | 14.4 | 124 | 79.3 | > 10000 |  |  |  |  |  |  | 
2 | CC(=O)O[C@@H]1[C@@H](COP(=O)(N[C@@H](C)C(=O)OC(C)C)Oc2ccccc2)OC(n2ccc(N)nc2=O)C1(F)F (stereo partly drawn) [compound 3, (S)-iso-propyl 2-((((2R,3R)-3-acetoxy-5-(4-amino-2-oxopyrimidin-1(2H)-yl)-4,4-difluoro-tetrahydrofuran-2-yl)methoxy)(phenoxy)phosphorylamino)propanoate] | 15.7 | 141 | 61 | > 10000 |  |  |  |  |  |  | 
3 | CC(C)OC(=O)[C@H](C)N[P@](=O)(OC[C@H]1O[C@@H](n2ccc(=O)[nH]c2=O)[C@](C)(F)[C@@H]1O)Oc1ccccc1 [PSI-7977, iso-propyl (S)-2-{(S)-[(2R,3R,4R,5R)-5-(2,4-dioxo-3,4-dihydro-2H-pyrimidin-1-yl)-4-fluoro-3-hydroxy-4-methyl-tetrahydro-furan-2-ylmethoxy]-phenoxy-phosphorylamino}-propanoate, reference compound] |  |  |  |  | 91.8 | 292 | 88.4 | > 10000 | 100 |  | 
4 | CC(C)OC(=O)[C@H](C)NP(=O)(OC[C@H]1O[C@@H](n2ccc(NC(=O)CN(C)C)nc2=O)C(F)(F)[C@@H]1O)Oc1ccccc1 (stereo partly drawn) [1.1.2(1), iso-propyl (S)-2-({(2R,3R,5R)-5-[4-(2-dimethylamino-acetylamino)-2-oxo-2H-pyrimidin-1-yl]-4,4-difluoro-3-hydroxy-tetrahydro-furan-2-ylmethoxy]-phenoxy-phosphorylamino}-propionate] | 35 | 106 | 116 | > 10000 |  |  |  |  |  |  | 
5 | CC(C)OC(=O)C(C)NP(=O)(OCC1OC(n2ccc(NC(=O)C(NC(=O)OC(C)(C)C)C(C)C)nc2=O)C(F)(F)C1O)Oc1ccccc1 (centres unmarked) [1.1.2(3)] | 60.9 |  |  | > 10000 |  |  |  |  |  | 182 | 69.4
6 | CC(C)OC(=O)[C@H](C)NP(=O)(OC[C@H]1OC(n2ccc(N)nc2=O)C(F)(F)[C@@H]1O)Oc1ccccc1 (stereo partly drawn) [compound 2, (S)-iso-propyl 2-((((2R,3R)-5-(4-aminooxopyrimidin-1(2H)-yl)-3-hydroxy-2-4,4-difluoro-tetrahydrofuran-2-yl)methoxy)(phenoxy)phosphorylamino)propanoate] |  |  |  |  | 13.9 | 114 | 57.2 | > 10000 |  |  | 
7 | CC(C)OC(=O)[C@H](C)NP(=O)(OC[C@H]1O[C@@H](n2ccc(NC(=O)[C@H](NC(=O)OC(C)(C)C)C(C)C)nc2=O)C(F)(F)[C@@H]1O)Oc1ccccc1 (some centres unmarked) [1.1.2(2)] | 60.6 | 95.6 | 78.9 | > 10000 |  |  |  |  |  |  | 
